Assay results from PMC8944080, “Production of indole by Corynebacterium glutamicum microbial cell factories for flavor and fragrance applications” (Microbial Cell Factories, 2022).

Biological target: T1, PrTNA (Proteiniclasticum ruminis, UniProt A0A1I5A1Q1)
T1 construct: gene tnaA; full length, untagged, codon-optimised gene in pGold, expressed in C. glutamicum C1*
T1 sequence (A0A1I5A1Q1 1-461): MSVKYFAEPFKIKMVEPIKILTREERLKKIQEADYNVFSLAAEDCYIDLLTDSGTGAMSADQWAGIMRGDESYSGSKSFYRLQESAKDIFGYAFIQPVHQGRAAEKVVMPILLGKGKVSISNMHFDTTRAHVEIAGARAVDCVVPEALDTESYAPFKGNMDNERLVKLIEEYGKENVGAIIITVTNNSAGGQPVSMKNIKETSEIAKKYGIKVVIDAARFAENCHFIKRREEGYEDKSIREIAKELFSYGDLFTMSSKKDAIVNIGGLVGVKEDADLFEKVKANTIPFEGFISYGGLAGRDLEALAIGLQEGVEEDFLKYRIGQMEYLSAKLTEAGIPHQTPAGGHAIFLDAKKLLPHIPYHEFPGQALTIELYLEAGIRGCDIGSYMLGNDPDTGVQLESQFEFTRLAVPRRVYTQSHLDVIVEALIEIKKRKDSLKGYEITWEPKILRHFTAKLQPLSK
Experiment: whole-cell conversion to indole, HPLC
Assay type: cell-based
Conditions: C. glutamicum C1* co-expressing aroP, CGXII medium, 1 g L^−1 Trp; empty vector control without aroP

`N[C@@H](Cc1c[nH]c2ccccc12)C(=O)O` [L-tryptophan] was tested, and the “whole-cell conversion to indole, HPLC” value was “Indole production was observed for all six tested TNAs”.
